Laboratory results from patent US20220220100A1 (SOLUTIA CANADA INC., priority 2019, published 2022).

Tests used:
Type in all cases: physicochemical
[1] = Photostability: xenon arc weathering of chromophore solutions, LCMS analysis; conditions: for Ketone (%) / Minus-2HF (%) / Minus-HF (%) / Sulfone (%) / Chromophore Remaining (%): xenon arc, 82° C. bp; for Ketone (%) / Minus-2HF (%) / Minus-HF (%) / Sulfone (%): linearly interpolated to 0.5 MJ/m2 @ 340 nm; for Chromophore Remaining (%): linearly interpolated to 0.5 MJ/m2 @ 340 nm of exposure energy; for Ratio of chromophore remaining relative to S340: interpolated to 0.5 MJ/m^2 of energy exposure at 340 nm; for Photostability (in words): weathering experiments
Excerpt: Photostability (resistance to light-induced degradation) may be measured by the amount of time required for the compound, or a material comprising the compound, to degrade to a certain point under light exposure. The light exposure may be constant, or cyclic. The light transmittance or absorbance of the compound, or material comprising the compound, may be determined at both a light state and dark state prior to testing, to determine a contrast ratio. During testing, the contrast ratio may be monitored (periodically or continually), the compound or material may be determined to have failed when the contrast ratio falls outside, or below, a selected range, or when the contrast ratio decreases to a percentage of the original contrast ratio. Photostability may also be expressed with reference to a light source or with reference to a type of light.
(§1) Chromophore solutions in Rhodiasolv IRIS were prepared at 1 to 10 wt % loading. Solutions were prepared in a glovebox by charging the chromophore and Rhodiasolv IRIS to a trace-clean vial, and the solution was stirred on a hotplate at 90° C. for 2-24 hours. After cooling, the chromophore solution was injected into glass weathering cells and the fill and vent ports were sealed with a thin disc of Kalrez (FFKM Perfluorinated Elastomer) and secured with a clamp and set-screw. The weathering cells were filled and sealed inside the glove box.
Measurement of Photostability
A. Fabrication of cuvettes. Two holes of 0.8 mm diameter were drilled at opposite ends in a 75×50 mm piece of float glass using a diamond drill bit in a rotary tool. The drilled glass and a matching piece of undrilled glass were then cleaned using hot soapy water, rinsed with deionized water and acetone and then dried with compressed air. A 5 mm wide frame was cut from a sheet of 50 μm thickness EVAL EF-F using a laser engraver. The EVAL frame was placed around the perimeter of one sheet of glass and sandwiched by the second sheet of glass. The glass-EVAL-glass sandwich was secured with tape and heated under vacuum (10 mmHg) for 30 minutes at 170° C. in a vacuum bag. After cooling, a third piece of float glass was PVB laminated to the non-drilled side of the sealed glass cells using Trosifol UV Extra Protect B150 PVB (400 nm UV cut-off).
B. Xenon arc weathering protocol. Devices were exposed to simulated weathering conditions inside a Xe-3-HS xenon arc chamber, manufactured by Q-labs Inc. The samples were weathered according to the following table. The devices were exposed to these conditions continuously, with no dark or spray cycles included.
C. Analysis of weathered chromophore solutions by LCMS. The set-screws, metal clamps and Kalrez plugs were removed from the cuvette to expose the fill port. A 5 mL plastic syringe (NORM-JECT®) equipped with a tip (Precision Tips, 0.010″ RED) was inserted into one fill port and the chromophore solution was withdrawn from the cuvette. The chromophore solution was then injected into a 2 mL amber vial (part number 5182-0716, Agilent Technology) prefilled with 1.5 mL LC-MS grade acetonitrile (HiPerSolbe CHROMANORM Acetonitrile, VWR BDH Chemicals). An aliquot of the acetonitrile solution (2 μL) was injected into the LC-MS system (Agilent Infinity 1290 LC-MS system with diode array detector) through an autosampler mechanism. Species in the injected sample were separated through a reverse phase column (Zorbax SB-C18, 2.1×50 mm, 1.8 μm, operated at 40° C.), using a mixture of acetonitrile (mixed with 1% formic acid v/v ratio), methanol (HiPerSolbe CHROMANORM Methanol, VWR BDH Chemicals) and water (HiPerSolbe CHROMANORM Water, VWR BDH Chemicals) as mobile phase.

[2] = Solubility in Rhodiasolv IRIS solvent; conditions: for Solubility in Rhodiasolv IRIS: Rhodiasolv IRIS (dimethyl-2-methyl glutarate), wt %; for Solubility (in words): relative to the methoxy parent chromophore
Excerpt: A compound with greater solubility allows for a formulation or material with a greater concentration of coloured molecule to be incorporated into a composition. This may allow for increasing the contrast ratio for a compound with a lesser absorbance at PSS. Examples of solubilizing groups for the compound include alkoxy, ether, ester or siloxy groups. In various embodiments, compounds may be soluble in the solvent component at room temperature at about 6 wt %, 7 wt %, 8 wt %, 9 wt %, 10 wt % or greater for testing to determine whether a compound has application as an exterior glazing or optical filter. If the solubility of a compound in the solvent component is too low, then insufficient darkening may be achieved in the ring-closed configuration, depending on conditions of use for the compound.
as §1

[3] = Oxidation potential of ring-closed and ring-open isomers; conditions: no unit printed in table (V relative to Ag/AgCl)
Excerpt: In various embodiments, at a PSS, some of the chromophore will be in the ring-closed isomer, with a small, but non-zero portion of ring-open isomer. The oxidation potential of a ring-open isomer may be more anodic than the oxidation potential of a ring-closed isomer. Exposure to a potential that is too far beyond what is necessary to oxidize the ring-closed isomer may result in oxidation of the ring-open isomer, which may be irreversible and result in electrochemically-induced degradation of the chromophore.
Thus, in various embodiments, an anodic chromophore may have an oxidation potential of from about 0.4 V to 1.2 V for the ring-closed isomer and about 1.0 V to 2.5 V for the ring-open isomer relative to an Ag/AgCl reference electrode. In various embodiments, the oxidation potential for the ring-open isomer is about 250 mV more anodic than the oxidation potential for the ring-closed isomer. For example, the oxidation potential may be about 260 mV, about 280 mV, about 300 mV, about 320 mV, about 340 mV, about 360 mV, about 380 mV, about 400 mV, about 420 mV, about 440 mV, or about 460 mV more anodic than the oxidation potential for the ring-closed isomer.

With `CC(=O)Oc1cc2oc(-c3ccc(C(C)(C)C)cc3)c(C3=C(c4cc(-c5ccc(C(C)(C)C)s5)sc4-c4ccc(C(C)(C)C)s4)C(F)(F)C(F)(F)C3(F)F)c2cc1OC(C)=O` [Chromophore S367, 2-(4-(tert-butyl)phenyl)-3-(2-(5,5″-di-tert-butyl-[2,2′:5′,2″-terthiophen]-3′-yl)-3,3,4,4,5,5-hexafluorocyclopent-1-en-1-yl)benzofuran-5,6-diyl diacetate] the “Ketone (%)” value ([1]; 10 wt % in Rhodiasolv IRIS) was 1.1%, the “Minus-2HF (%)” value ([1]; 10 wt % in Rhodiasolv IRIS) was 0.0% and the “Minus-HF (%)” value ([1]; 10 wt % in Rhodiasolv IRIS) was 56.0%. The “Sulfone (%)” value ([1]; 10 wt % in Rhodiasolv IRIS) was 0.0%, the “Chromophore Remaining (%)” value ([1]; 10 wt % in Rhodiasolv IRIS) was 40.8% and the “Ratio of chromophore remaining relative to S340” value ([1]; 10 wt %) was 0.45. The “Photostability (in words)” value [1] was “more rapid degradation compared to S340”, the “Solubility in Rhodiasolv IRIS” value [2] was greater than 10% and the “Solubility (in words)” value [2] was “improved”. For the same molecule, the “RC [O] (oxidation potential of ring-closed isomer)” value (shortened to “RC [O]”) [3] was 1.12 and the “RO [O] (oxidation potential of ring-open isomer)” value (“RO [O]” for short) [3] was 1.38.
For `CCOC(=O)CCCOc1cc2oc(-c3ccc(C(C)(C)C)cc3)c(C3=C(c4cc(-c5ccc(C(C)(C)C)s5)sc4-c4ccc(C(C)(C)C)s4)C(F)(F)C(F)(F)C3(F)F)c2cc1OCCCC(=O)OCC` [Chromophore S374, diethyl 4,4′-((2-(4-(tert-butyl)phenyl)-3-(2-(5,5″-di-tert-butyl-[2,2′:5′,2″-terthiophen]-3′-yl)-3,3,4,4,5,5-hexafluorocyclopent-1-en-1-yl)benzofuran-5,6-diyl)bis(oxy))dibutanoate], the “Ketone (%)” value ([1]; 10 wt % in Rhodiasolv IRIS) was 0.0%, the “Minus-2HF (%)” value ([1]; 10 wt % in Rhodiasolv IRIS) was 0.0% and the “Minus-HF (%)” value ([1]; 10 wt % in Rhodiasolv IRIS) was 26.5%. For the same molecule, the “Sulfone (%)” value ([1]; 10 wt % in Rhodiasolv IRIS) was 0.0%, the “Chromophore Remaining (%)” value ([1]; 10 wt % in Rhodiasolv IRIS) was 72.4% and the “Ratio of chromophore remaining relative to S340” value ([1]; 10 wt %) was 0.79. The “Photostability (in words)” value [1] was “decreased stability”, the “Solubility in Rhodiasolv IRIS” value [2] was greater than 10% and the “Solubility (in words)” value [2] was “improved”. The “RC [O]” value [3] was 0.93 and the “RO [O]” value [3] was 1.35.
For `COc1cc2oc(-c3ccc(C(C)(C)C)cc3)c(C3=C(c4cc(-c5cc(C(C)(C)C)cs5)sc4-c4cc(C(C)(C)C)cs4)C(F)(F)C(F)(F)C3(F)F)c2cc1OC` [Chromophore S377, 2-(4-(tert-butyl)phenyl)-3-(2-(4,4″-di-tert-butyl-[2,2′:5′,2″-terthiophen]-3′-yl)-3,3,4,4,5,5-hexafluorocyclopent-1-en-1-yl)-5,6-dimethoxybenzofuran], the “Ketone (%)” value ([1]; 5 wt % in Rhodiasolv IRIS) was 0.0%, the “Minus-2HF (%)” value ([1]; 5 wt % in Rhodiasolv IRIS) was 0.0% and the “Minus-HF (%)” value ([1]; 5 wt % in Rhodiasolv IRIS) was 0.0%. The “Sulfone (%)” value ([1]; 5 wt % in Rhodiasolv IRIS) was 0.0%, the “Chromophore Remaining (%)” value ([1]; 5 wt % in Rhodiasolv IRIS) was 100.0% and the “Ratio of chromophore remaining relative to S340” value ([1]; 5 wt %) was 1.10. For the same molecule, the “Photostability (in words)” value [1] was “high photostability”, the “Solubility in Rhodiasolv IRIS” value [2] was greater than 5% and the “RC [O]” value [3] was 0.97. The “RO [O]” value [3] was 1.42.
With `COc1cc2oc(-c3ccc(C(C)(C)C)cc3)c(C3=C(c4cc(-c5ccc(C(C)(C)C)s5)sc4-c4sc(C(C)(C)C)cc4C)C(F)(F)C(F)(F)C3(F)F)c2cc1OC` [Chromophore S378, 2-(4-(tert-butyl)phenyl)-3-(2-(5,5″-di-tert-butyl-3-methyl-[2,2′:5′,2″-terthiophen]-3′-yl)-3,3,4,4,5,5-hexafluorocyclopent-1-en-1-yl)-5,6-dimethoxybenzofuran] the “Formation of the Minus-HF degradation product (in words)” value [1] was “does not occur”, the “Ketone (%)” value ([1]; 3 wt % in Rhodiasolv IRIS) was 0.0% and the “Minus-2HF (%)” value ([1]; 3 wt % in Rhodiasolv IRIS) was 0.0%. For the same molecule, the “Minus-HF (%)” value ([1]; 3 wt % in Rhodiasolv IRIS) was 0.0%, the “Sulfone (%)” value ([1]; 3 wt % in Rhodiasolv IRIS) was 7.5% and the “Chromophore Remaining (%)” value ([1]; 3 wt % in Rhodiasolv IRIS) was 92.5%. For the same molecule, the “Ratio of chromophore remaining relative to S340” value ([1]; 3 wt %) was 1.02, the “Solubility in Rhodiasolv IRIS” value [2] was less than 5% and the “RC [O]” value [3] was 0.9. The “RO [O]” value [3] was 1.36.
In the case of `CCOC(=O)CCCOc1cc2oc(-c3ccc(C(C)(C)C)cc3)c(C3=C(c4cc(-c5ccc(C(C)(C)C)s5)sc4-c4sc(C(C)(C)C)cc4C)C(F)(F)C(F)(F)C3(F)F)c2cc1OCCCC(=O)OCC` [Chromophore S383, diethyl 4,4′-((2-(4-(tert-butyl)phenyl)-3-(2-(5,5″-di-tert-butyl-3-methyl-[2,2′:5′,2″-terthiophen]-3′-yl)-3,3,4,4,5,5-hexafluorocyclopent-1-en-1-yl)benzofuran-5,6-diyl)bis(oxy))dibutanoate], the “Formation of the Minus-HF degradation product (in words)” value [1] is reported as “does not occur”, the “Ketone (%)” value ([1]; 10 wt % in Rhodiasolv IRIS) is reported as 0.0% and the “Minus-2HF (%)” value ([1]; 10 wt % in Rhodiasolv IRIS) is reported as 0.0%. For the same molecule, the “Minus-HF (%)” value ([1]; 10 wt % in Rhodiasolv IRIS) was 0.0%, the “Sulfone (%)” value ([1]; 10 wt % in Rhodiasolv IRIS) was 0.0% and the “Chromophore Remaining (%)” value ([1]; 10 wt % in Rhodiasolv IRIS) was 100.0%. The “Ratio of chromophore remaining relative to S340” value ([1]; 10 wt %) was 1.10, the “Solubility in Rhodiasolv IRIS” value [2] was greater than 10% and the “Solubility (in words)” value [2] was “improved solubility”. For the same molecule, the “RC [O]” value [3] was 0.91 and the “RO [O]” value [3] was 1.36.
For `CCOC(=O)CCCOc1cc2oc(-c3ccc(C(C)(C)C)cc3)c(C3=C(c4cc(-c5sc(C(C)(C)C)cc5C)sc4-c4sc(C(C)(C)C)cc4C)C(F)(F)C(F)(F)C3(F)F)c2cc1OCCCC(=O)OCC` [Chromophore S384, diethyl 4,4′-((2-(4-(tert-butyl)phenyl)-3-(2-(5,5″-di-tert-butyl-3,3″-dimethyl-[2,2′:5′,2″-terthiophen]-3′-yl)-3,3,4,4,5,5-hexafluorocyclopent-1-en-1-yl)benzofuran-5,6-diyl)bis(oxy))dibutanoate], the “Formation of the Minus-HF degradation product (in words)” value [1] was “does not occur”, the “Ketone (%)” value ([1]; 10 wt % in Rhodiasolv IRIS) was 0.0% and the “Minus-2HF (%)” value ([1]; 10 wt % in Rhodiasolv IRIS) was 0.0%. The “Minus-HF (%)” value ([1]; 10 wt % in Rhodiasolv IRIS) was 0.0%, the “Sulfone (%)” value ([1]; 10 wt % in Rhodiasolv IRIS) was 1.3% and the “Chromophore Remaining (%)” value ([1]; 10 wt % in Rhodiasolv IRIS) was 97.2%. For the same molecule, the “Ratio of chromophore remaining relative to S340” value ([1]; 10 wt %) was 1.07, the “Solubility in Rhodiasolv IRIS” value [2] was greater than 10% and the “RC [O]” value [3] was 0.87. For the same molecule, the “RO [O]” value [3] was 1.31.
